From US11530219B2, “Ligands to cereblon (CRBN)” (DANA-FARBER CANCER INSTITUTE, INC., priority 2018, dated 2022)
“Also recorded” adds a separate entry of the source. Where two headings read alike, the source gives them in different places.

Target: CRBN (Homo sapiens (Human), UniProt Q96SW2)
Assay: Cellular CRBN dBET6 displacement assay (BRD4BD2-GFP/mCherry reporter cells)
Assay type: cell-based
Details: 100 nM dBET6, 5 hours
Method: BRD4BD2 were subcloned into mammalian pcDNA5/FRT Vector (Ampicillin and Hygromycin B resistant) modified to contain MCS-eGFP-P2A-mCherry. […] Following a 2-3 passage cycle, FACS (FACSAria™ II, BD) was used to enrich for cells expressing eGFP and mCherry.
Signal from minimal 3000 events per well was acquired and the eGFP and mCherry florescence monitored. Data was analyzed using FlowJo® (FlowJo®, LCC). […] The eGFP protein abundance relative to mCherry was then quantified as a ten-fold amplified ratio for each individual cell using the formula: 10×eGFP/mCherry. The median of the ratio was then calculated per set, normalized to the median of the DMSO ratio.
This assay provided a readout of cellular CRBN binding impacted by the permeability of the molecule tested.

[1] = Flip-In 293 cells stably expressing BRD4BD2-GFP, read-out: Cellular CRBN-BRD4 dBET6 displacement EC50
[2] = Flip-In 293 cells stably expressing BRD4BD2-GFP
[3] = unit printed as 'M' in the text (Table 1 gives μM), read-out: Cellular CRBN engagement EC50

Chain of CRBN (Q96SW2 whole entry): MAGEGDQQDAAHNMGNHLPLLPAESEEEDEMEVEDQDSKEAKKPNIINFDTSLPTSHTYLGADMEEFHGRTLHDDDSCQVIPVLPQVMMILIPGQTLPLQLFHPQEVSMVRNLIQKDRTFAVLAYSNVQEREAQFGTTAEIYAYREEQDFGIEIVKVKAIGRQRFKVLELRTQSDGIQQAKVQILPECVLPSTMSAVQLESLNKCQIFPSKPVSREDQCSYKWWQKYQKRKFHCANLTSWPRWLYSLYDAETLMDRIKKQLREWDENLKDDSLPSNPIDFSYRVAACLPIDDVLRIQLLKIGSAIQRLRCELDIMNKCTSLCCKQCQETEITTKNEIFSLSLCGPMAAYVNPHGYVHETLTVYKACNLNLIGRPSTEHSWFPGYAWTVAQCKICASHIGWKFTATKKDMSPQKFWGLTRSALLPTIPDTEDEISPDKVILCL

Structure (SMILES)	EC50 [1] [µM]	other results
COc1ccc(Nc2nccc(Nc3cccc4c3CN(C3CCC(=O)NC3=O)C4=O)n2)cc1 (centres unmarked) [Compound 18, 3-(4-((2-((4-methoxyphenyl)amino)pyrimidin-4-yl)amino)-1-oxoisoindolin-2-yl)piperidine-2,6-dione]	2.69	
O=C1CCC(N2Cc3c(Nc4ccnc(Nc5ccc6c(c5)OCCO6)n4)cccc3C2=O)C(=O)N1 (centres unmarked) [Compound 19, 3-(4-((2-((2,3-dihydrobenzo[b][1,4]dioxin-6-yl)amino)pyrimidin-4-yl)amino)-1-oxoisoindolin-2-yl)piperidine-2,6-dione]	3.63	
O=C1CCC(N2Cc3c(Nc4ccnc(NCCCN5CCCC5=O)n4)cccc3C2=O)C(=O)N1 (centres unmarked) [Compound 22, 3-(1-oxo-4-((2-((3-(2-oxopyrrolidin-1-yl)propyl)amino)pyrimidin-4-yl)amino)isoindolin-2-yl)piperidine-2,6-dione]		Cellular CRBN-BRD4 dBET6 displacement EC50 [2]: inactive; also recorded: Not binding
O=C1CCC(N2Cc3c(Nc4ccnc(N5CCN(c6cccc(C(F)(F)F)c6)CC5)n4)cccc3C2=O)C(=O)N1 (centres unmarked) [Compound 23, 3-(1-oxo-4-((2-(4-(3-(trifluoromethyl)phenyl)piperazin-1-yl)pyrimidin-4-yl)amino)isoindolin-2-yl)piperidine-2,6-dione]		EC50 [3]: 0.66 µM
CCN(Cc1ccccc1)c1nccc(Nc2cccc3c2CN(C2CCC(=O)NC2=O)C3=O)n1 (centres unmarked) [Compound 26, 3-(4-((2-(benzyl(ethyl)amino)pyrimidin-4-yl)amino)-1-oxoisoindolin-2-yl)piperidine-2,6-dione]		EC50 [3]: 0.67 µM
Cc1cc(C)c(Nc2nccc(Nc3cccc4c3CN(C3CCC(=O)NC3=O)C4=O)n2)c(C)c1 (centres unmarked) [Compound 28, 3-(4-((2-(mesitylamino)pyrimidin-4-yl)amino)-1-oxoisoindolin-2-yl)piperidine-2,6-dione]	3.25	
O=C1CCC(N2Cc3c(Nc4ccnc(N5CCC[C@H]5CO)n4)cccc3C2=O)C(=O)N1 (stereo partly drawn) [Compound 29, 3-(4-((2-((S)-2-(hydroxymethyl)pyrrolidin-1-yl)pyrimidin-4-yl)amino)-1-oxoisoindolin-2-yl)piperidine-2,6-dione]	8.14	
O=C1CCC(N2Cc3c(Nc4ccnc(N5CCC[C@@H]5CO)n4)cccc3C2=O)C(=O)N1 (stereo partly drawn) [Compound 30, 3-(4-((2-((R)-2-(hydroxymethyl)pyrrolidin-1-yl)pyrimidin-4-yl)amino)-1-oxoisoindolin-2-yl)piperidine-2,6-dione]	8.15	
O=C1CCC(N2Cc3c(Nc4ccnc(-c5ccc(-c6ccccc6)cc5)n4)cccc3C2=O)C(=O)N1 (centres unmarked) [Compound 31, 3-(4-((2-([1,1′-biphenyl]-4-yl)pyrimidin-4-yl)amino)-1-oxoisoindolin-2-yl)piperidine-2,6-dione]	8.66	
COc1cccc(-c2nccc(Nc3cccc4c3CN(C3CCC(=O)NC3=O)C4=O)n2)c1 (centres unmarked) [Compound 32, 3-(4-((2-(3-methoxyphenyl)pyrimidin-4-yl)amino)-1-oxoisoindolin-2-yl)piperidine-2,6-dione]	4.16	
COc1cc(F)ccc1-c1nccc(NCC(=O)Nc2cccc3c2CN(C2CCC(=O)NC2=O)C3=O)n1 (centres unmarked) [Compound 34, N-(2-(2,6-dioxopiperidin-3-yl)-1-oxoisoindolin-4-yl)-2-((2-(4-fluoro-2-methoxyphenyl)pyrimidin-4-yl)amino)acetamide]		Cellular CRBN-BRD4 dBET6 displacement EC50 [2]: inactive; also recorded: Not binding
CC(C)C(CO)Nc1nccc(Nc2cccc3c2CN(C2CCC(=O)NC2=O)C3=O)n1 [Compound 37, 3-(4-((2-(((R)-1-hydroxy-3-methylbutan-2-yl)amino)pyrimidin-4-yl)amino)-1-oxoisoindolin-2-yl)piperidine-2,6-dione]	9.74	
COc1ccccc1Nc1nccc(Nc2cccc3c2CN(C2CCC(=O)NC2=O)C3=O)n1 (centres unmarked) [Compound 38, 3-(4-((2-((2-methoxyphenyl)amino)pyrimidin-4-yl)amino)-1-oxoisoindolin-2-yl)piperidine-2,6-dione]	2.6	
O=C1CCC(N2Cc3c(Nc4ccnc(-c5ccc(F)cc5)n4)cccc3C2=O)C(=O)N1 (centres unmarked) [Compound 39, 3-(4-((2-(4-fluorophenyl)pyrimidin-4-yl)amino)-1-oxoisoindolin-2-yl)piperidine-2,6-dione]		EC50 [3]: 0.742 µM
NS(=O)(=O)c1ccc(Nc2nccc(Nc3cccc4c3CN(C3CCC(=O)NC3=O)C4=O)n2)cc1 (centres unmarked) [Compound 40, 4-((4-((2-(2,6-dioxopiperidin-3-yl)-1-oxoisoindolin-4-yl)amino)pyrimidin-2-yl)amino)benzenesulfonamide]		Cellular CRBN-BRD4 dBET6 displacement EC50 [2]: inactive; also recorded: Not binding
O=C1CCC(N2Cc3c(Nc4ccnc(Nc5ccc6c(c5)CCN6)n4)cccc3C2=O)C(=O)N1 (centres unmarked) [Compound 43, 3-(4-((2-(indolin-5-ylamino)pyrimidin-4-yl)amino)-1-oxoisoindolin-2-yl)piperidine-2,6-dione]	25.3	
COc1ccccc1-c1nc(Nc2cccc3c2CN(C2CCC(=O)NC2=O)C3=O)c2nc[nH]c2n1 (centres unmarked) [Compound 47, 3-(4-((2-(2-methoxyphenyl)-9H-purin-6-yl)amino)-1-oxoisoindolin-2-yl)piperidine-2,6-dione]	27.1	
O=C1CCC(N2Cc3c(Nc4nc(-c5ccc(-c6ccccc6)cc5)nc5[nH]cnc45)cccc3C2=O)C(=O)N1 (centres unmarked) [Compound 48, 3-(4-((2-([1,1′-biphenyl]-4-yl)-9H-purin-6-yl)amino)-1-oxoisoindolin-2-yl)piperidine-2,6-dione]	12.4	
COc1cc(F)ccc1-c1nc(Nc2cccc3c2CN(C2CCC(=O)NC2=O)C3=O)c2nc[nH]c2n1 (centres unmarked) [Compound 49, 3-(4-((2-(4-fluoro-2-methoxyphenyl)-9H-purin-6-yl)amino)-1-oxoisoindolin-2-yl)piperidine-2,6-dione]	12.4	
O=C1CCC(N2Cc3c(Nc4nc(-c5ccc(F)cc5)nc5[nH]cnc45)cccc3C2=O)C(=O)N1 (centres unmarked) [Compound 50, 3-(4-((2-(4-fluorophenyl)-9H-purin-6-yl)amino)-1-oxoisoindolin-2-yl)piperidine-2,6-dione]	8.29	
COc1cc(OC)cc(-c2nc(Nc3cccc4c3CN(C3CCC(=O)NC3=O)C4=O)c3nc[nH]c3n2)c1 (centres unmarked) [Compound 51, 3-(4-((2-(3,5-dimethoxyphenyl)-9H-purin-6-yl)amino)-1-oxoisoindolin-2-yl)piperidine-2,6-dione]	6.83	
O=C1CCC(N2Cc3c(Nc4ccnc(Nc5ccc6c(c5)CCCC6)n4)cccc3C2=O)C(=O)N1 (centres unmarked) [Compound 52, 3-(1-oxo-4-((2-((5,6,7,8-tetrahydronaphthalen-2-yl)amino)pyrimidin-4-yl)amino)isoindolin-2-yl)piperidine-2,6-dione]		EC50 [3]: 0.46 µM

Now from value to compound, other results behind:

EC50 [1] [µM]	Structure (SMILES)	other results
1.26	CC(=O)c1ccc(-c2nccc(Nc3cccc4c3CN(C3CCC(=O)NC3=O)C4=O)n2)cc1 (centres unmarked) [Compound 20, 3-(4-((2-(4-acetylphenyl)pyrimidin-4-yl)amino)-1-oxoisoindolin-2-yl)piperidine-2,6-dione]	
2.31	O=C1CCC(N2Cc3c(Nc4ccnc(Nc5ccccc5F)n4)cccc3C2=O)C(=O)N1 (centres unmarked) [Compound 21, 3-(4-((2-((2-fluorophenyl)amino)pyrimidin-4-yl)amino)-1-oxoisoindolin-2-yl)piperidine-2,6-dione]	
1.35	O=C1CCC(N2Cc3c(Nc4ccnc(Nc5ccc6c(c5)CCC6)n4)cccc3C2=O)C(=O)N1 (centres unmarked) [Compound 24, 3-(4-((2-((2,3-dihydro-1H-inden-5-yl)amino)pyrimidin-4-yl)amino)-1-oxoisoindolin-2-yl)piperidine-2,6-dione]	
1.25	CN(c1ccccc1)c1nccc(Nc2cccc3c2CN(C2CCC(=O)NC2=O)C3=O)n1 (centres unmarked) [Compound 27, 3-(4-((2-(methyl(phenyl)amino)pyrimidin-4-yl)amino)-1-oxoisoindolin-2-yl)piperidine-2,6-dione]	
2.59	COc1cc(F)ccc1-c1nccc(Nc2cccc3c2CN(C2CCC(=O)NC2=O)C3=O)n1 (centres unmarked) [Compound 33, 3-(4-((2-(4-fluoro-2-methoxyphenyl)pyrimidin-4-yl)amino)-1-oxoisoindolin-2-yl)piperidine-2,6-dione]	
1.86	COc1ccc(-c2nccc(Nc3cccc4c3CN(C3CCC(=O)NC3=O)C4=O)n2)c(OC)c1 (centres unmarked) [Compound 35, 3-(4-((2-(2,4-dimethoxyphenyl)pyrimidin-4-yl)amino)-1-oxoisoindolin-2-yl)piperidine-2,6-dione]	
2.24	O=C1CCC(N2Cc3c(Nc4ccnc(-c5cc6ccccc6o5)n4)cccc3C2=O)C(=O)N1 (centres unmarked) [Compound 36, 3-(4-((2-(benzofuran-2-yl)pyrimidin-4-yl)amino)-1-oxoisoindolin-2-yl)piperidine-2,6-dione]	
0.913	O=C1CCC(N2Cc3c(Nc4ccnc(NC56CC7CC(CC(C7)C5)C6)n4)cccc3C2=O)C(=O)N1 (centres unmarked) [Compound 44, 3-(4-((2-(((3s,5s,7s)-adamantan-1-yl)amino)pyrimidin-4-yl)amino)-1-oxoisoindolin-2-yl)piperidine-2,6-dione]	
2.06	O=C1CCC(N2Cc3c(Nc4ccnc(Nc5ccc6ccccc6c5)n4)cccc3C2=O)C(=O)N1 (centres unmarked) [Compound 45, 3-(4-((2-(naphthalen-2-ylamino)pyrimidin-4-yl)amino)-1-oxoisoindolin-2-yl)piperidine-2,6-dione]	
1.13	O=C1CCC(N2Cc3c(Nc4ccnc(Nc5ccc6c(c5)-c5ccccc5C6)n4)cccc3C2=O)C(=O)N1 (centres unmarked) [Compound 46, 3-(4-((2-((9H-fluoren-3-yl)amino)pyrimidin-4-yl)amino)-1-oxoisoindolin-2-yl)piperidine-2,6-dione]	
